Reference: patent EP4321023A1, “MOSQUITO REPELLENT COMPOSITION COMPRISING YARROW ESSENTIAL OIL” (National Hellenic Research Foundation, priority 2022, dated 2024)

Columns and labels:
EpiOcular™ tissues = format: cell-based; settings: human, 30 min, 200 µg EO/cm^2
Experimental: The EpiOcular™ eye irritation test (Stern, Klausner et al., 1998) (OCL-200-EIT) purchased by MatTek was used in this study to evaluate the eye irritation potential of nano-emulsion 1 of Example 2 (Yarrow essential oil (2% Achillea millefolium essential oil)) or of nano-emulsion 2 of Example 2 (mixture of 1% Yarrow essential oil (Achillea millefolium essential oil) with 1% Lavandin oil (Hybrid Lavandula intermedia essential oil) [1:1 w/w]).
Fresh tissues are equilibrated at RT for 15 min, then, transferred onto 6-well plates and pre-incubated at standard culture conditions for 1 hour in assay medium, which is DMEM based medium (MatTek), then, replaced, and tissues are incubated overnight under standard culture conditions. The tissues are prehydrated with Ca^++Mg^++Free-DPBS and incubated at standard culture conditions for 30±2 min. Each nano-emulsion (dose: 200 µg EO/cm^2) and control samples are applied topically on the EpiOcular™ tissues. The tissues are incubated for 30±2 min followed by removal of the nano-emulsions by extensive rinsing of the tissues with Ca^++Mg^++Free-DPBS. […] Finally, the MTT assay is performed, and the relative tissue viability is calculated for each tissue as % of the mean viability of the negative control tissues. […]

Epiderm™ tissues = test: EpiDerm skin irritation test (EPI-200-SIT), MTT tissue viability; format: cell-based, human
Text: The EpiDerm™ skin irritation test kit (Schafer-Korting, Bock et al., 2008) (EPI-200-SIT) was purchased by MatTek (https://www.mattek.com/) and used in this study. The value of this method lies in that it provides in vivo prediction for classification testing of the nano-emulsions as irritant or non-irritant, based on in vitro results. According to the EU and GHS classification (R38/ Category 2 or no label), an irritant is predicted if the mean relative tissue viability of individual tissues exposed to the test substance is reduced below 50% of the mean viability of the negative controls run in parallel.
The experimental procedure for the skin irritation test is the following. Fresh tissues are transferred onto 6-well plates and pre-incubated under standard culture conditions for 1 hour in the assay medium (DMEM based medium, MatTek). Then, the assay medium is replaced by fresh assay medium, and tissues are incubated overnight. […] Then, the blue formazan salt formed by cellular mitochondria is extracted with 2.0 ml/tissue of isopropanol (extractant solution, part # MTT-100-EXT) and the optical density of the extracted formazan is determined at 570 nm using a spectrophotometer. Relative tissue viability is calculated for each tissue as % of the mean viability of the negative control tissues. […]

3D human skin tissues = test: Histological analysis (eosin and hematoxylin) after 48 h topical application; format: cell-based; settings: dose 200 µg EO/cm^2, 48 hours; Figure 8
Experimental: Following topical application of nano-emulsion 1 of Example 2 (Yarrow essential oil (2% Achillea millefolium essential oil)) or of nano-emulsion 2 of Example 2 (mixture of 1% Yarrow essential oil (Achillea millefolium essential oil) with 1% Lavandin oil (Hybrid Lavandula intermedia essential oil) [1:1 w/w]) on 3D human skin tissues, for 48 hours, skin specimens are collected and further processed for: [1] histological analysis (Furio, Pampalakis et al., 2015) and [2] molecular analysis.
First, 3D-reconstructed human skin tissue culture media is replaced with fresh, pre-warmed media. Under sterile conditions, tissues are exposed topically to each test nano-emulsion (dose, 200 µg EO/cm^2). 5% SDS a widely known skin irritant was used as positive control. […] Alternatively, total RNA was extracted from 3D human skin tissues (Macherey-Nagel) to quantify relative expression of tight junction proteins with the aim to test for potential alterations in expression levels (Figure 9 ). Then, synthesized cDNAs (SuperScript™ First-Strand Synthesis System for RT-PCR, Invitrogen) were used as template for RT-qPCR (SYBR™ Select, Applied Biosystems) to quantify the relative expression levels of tight junction proteins encoding genes using the gene-specific primers enlisted in Table 8. […]

## COC(C)=O [PC, methyl acetate]
EpiOcular™ tissues
  Mean of viabilities, %: 13.46%
Epiderm™ tissues; skin irritation, prediction model developed by MatTek
  Classification: I, qualified (I, irritant)
Epiderm™ tissues; skin, dose 200 µg EO/cm^2, 60±1 min exposure, % of mean viability of negative control, 2 tissues
  Mean of viabilities, %: 2.828%
3D human skin tissues
  skin morphology by eosin and hematoxylin staining: high degree of damage
